In PubChem BioAssay AID248 (DTP/NCI, 2004):
“And” between values parts separate entries of the source, which are not always exact repeats. Equal values may be shown once. Inconclusive results and toxic doses are left out.

Tested on: L1210 leukemia ip in BDF1 mice, survival T/C
Test: NCI In Vivo Anticancer Drug Screen. Data for tumor model L1210 Leukemia (intraperitoneal) in B6D2F1 (BDF1) mice
Details: endpoint: mean survival time, higher = longer survival
Summary of the method: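 In this screen, tumor-bearing mice given compound are compared to those given vehicle, and their survival values are reported as a treated-to-control quotient.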

Structure (SMILES): NC(C/[N+]([O-])=N/O)C(=O)O (configuration not stated)
- T/C (dose: 6.25 mg/kg/injection, schedule: Q01DX009 (ip), vehicle: saline): 117 % of control and 118 % of control
- T/C (dose: 8.0 mg/kg/injection, schedule: Q03HX016 (ip), vehicle: saline): 111 % of control
- T/C (dose: 8.0 mg/kg/injection, schedule: Q03HX024 (ip), vehicle: saline): 113 % of control
- T/C (dose: 12.5 mg/kg/injection, schedule: Q01DX009 (ip), vehicle: saline): 117 % of control and 122 % of control and 123 % of control
- T/C (dose: 16.0 mg/kg/injection, schedule: Q03HX008 (ip), vehicle: saline): 111 % of control
- T/C (dose: 16.0 mg/kg/injection, schedule: Q03HX016 (ip), vehicle: saline): 116 % of control
- T/C (dose: 16.0 mg/kg/injection, schedule: Q03HX024 (ip), vehicle: saline): 118 % of control
- T/C (dose: 20.0 mg/kg/injection, schedule: Q01DX009 (ip), vehicle: saline): 118 % of control
- T/C (dose: 25.0 mg/kg/injection, schedule: Q01DX001 (ip), vehicle: carboxymethylcellulose (CMC)): 112 % of control
- T/C (dose: 25.0 mg/kg/injection, schedule: Q01DX009 (ip), vehicle: saline): 120 % of control and 123 % of control
- T/C (dose: 30.0 mg/kg/injection, schedule: Q01DX009 (ip), vehicle: saline with Tween-80): 111 % of control
- T/C (dose: 32.0 mg/kg/injection, schedule: Q01DX009 (ip), vehicle: saline): 116 % of control
- T/C (dose: 32.0 mg/kg/injection, schedule: Q01DX009 (sc), vehicle: saline): 117 % of control
- T/C (dose: 32.0 mg/kg/injection, schedule: Q03HX008 (ip), vehicle: saline): 116 % of control
- T/C (dose: 32.0 mg/kg/injection, schedule: Q03HX024 (ip), vehicle: saline): 121 % of control
- T/C (dose: 40.0 mg/kg/injection, schedule: Q01DX009 (ip), vehicle: saline): 121 % of control
- T/C (dose: 44.0 mg/kg/injection, schedule: Q01DX009 (ip), vehicle: saline with Tween-80): 108 % of control
- T/C (dose: 50.0 mg/kg/injection, schedule: Q01DX001 (ip), vehicle: carboxymethylcellulose (CMC)): 106 % of control
- T/C (dose: 54.0 mg/kg/injection, schedule: Q04DX003 (ip), vehicle: saline with Tween-80): 110 % of control
- T/C (dose: 64.0 mg/kg/injection, schedule: Q01DX001 (oral), vehicle: saline): 107 % of control
- T/C (dose: 64.0 mg/kg/injection, schedule: Q01DX009 (ip), vehicle: saline): 123 % of control
- T/C (dose: 64.0 mg/kg/injection, schedule: Q01DX009 (oral), vehicle: saline): 92 % of control
- T/C (dose: 64.0 mg/kg/injection, schedule: Q01DX009 (sc), vehicle: saline): 118 % of control
- T/C (dose: 64.0 mg/kg/injection, schedule: Q03HX008 (ip), vehicle: saline): 116 % of control
- T/C (dose: 64.0 mg/kg/injection, schedule: Q03HX024 (ip), vehicle: saline): 122 % of control
- T/C (dose: 64.0 mg/kg/injection, schedule: Q04DX003 (ip), vehicle: saline): 117 % of control
- T/C (dose: 64.0 mg/kg/injection, schedule: Q08DX002 (ip), vehicle: saline): 117 % of control
- T/C (dose: 67.0 mg/kg/injection, schedule: Q01DX009 (ip), vehicle: saline with Tween-80): 104 % of control
- T/C (dose: 100.0 mg/kg/injection, schedule: Q01DX001 (ip), vehicle: carboxymethylcellulose (CMC)): 110 % of control
- T/C (dose: 100.0 mg/kg/injection, schedule: Q04DX003 (ip), vehicle: saline with Tween-80): 123 % of control
- T/C (dose: 128.0 mg/kg/injection, schedule: Q01DX001 (ip), vehicle: saline): 118 % of control
- T/C (dose: 128.0 mg/kg/injection, schedule: Q01DX001 (oral), vehicle: saline): 103 % of control
- T/C (dose: 128.0 mg/kg/injection, schedule: Q01DX001 (sc), vehicle: saline): 104 % of control
- T/C (dose: 128.0 mg/kg/injection, schedule: Q01DX009 (ip), vehicle: saline): 108 % of control
- T/C (dose: 128.0 mg/kg/injection, schedule: Q01DX009 (sc), vehicle: saline): 102 % of control
- T/C (dose: 128.0 mg/kg/injection, schedule: Q03HX008 (ip), vehicle: saline): 119 % of control
- T/C (dose: 128.0 mg/kg/injection, schedule: Q03HX016 (ip), vehicle: saline): 122 % of control
- T/C (dose: 128.0 mg/kg/injection, schedule: Q04DX003 (ip), vehicle: saline): 114 % of control
- T/C (dose: 128.0 mg/kg/injection, schedule: Q08DX002 (ip), vehicle: saline): 112 % of control
- T/C (dose: 150.0 mg/kg/injection, schedule: Q01DX009 (ip), vehicle: saline with Tween-80): 92 % of control
- T/C (dose: 160.0 mg/kg/injection, schedule: Q01DX009 (ip), vehicle: saline): 116 % of control
- T/C (dose: 187.0 mg/kg/injection, schedule: Q04DX003 (ip), vehicle: saline with Tween-80): 156 % of control
